From patent US4873236A, “Condensed diazepinones, processes for preparing them and pharmaceutical compositions containing these compounds” (Dr. Karl Thomae GmbH, priority 1986, dated 1989)

Experiments:
salivation = assay: Salivation-inhibiting effect on the rat (pilocarpine); format: in vivo, male THOM rats; conditions: for ED50: Rattus norvegicus, iv, pilocarpine 2 mg/kg s.c., 50% reduction of saliva volume, read-out: Salivation inhibition (rat) ED50
Protocol: The secretion of saliva was triggered by subcutaneous administration of 2 mg/kg of pilocarpine. The saliva was soaked up with blotting paper and the area occupied by the saliva was determined by planimetry every 5 minutes. The dosage of substance which reduced the volume of saliva by 50% was determined graphically.

[1] = biological target: T1, muscarinic receptors, lachrymal glands (Rattus norvegicus, UniProt P08483); assay: Receptor bonding test in vivo, lachrymal glands (3H-NMS); design: species or system female rats; conditions: iv, 0.5 h, in vivo binding, i.v., 113 ng/kg 3H-NMS, read-out: ID50 Lachrymal glands
T1 construct: from tissue; host or cells: lachrymal glands of female rats, labelled in vivo
Protocol: For these experiments, female rats with a body weight of about 200 g were used. Before the start of the test the animals were anaesthetised with a dosage of 1.25 g/kg of urethane. The animals were each given the prescribed dosage of test substance by intravenous injection. After 15 minutes, 113 ng/kg of ^3 H-N-methylscopolamine (^3 H-NMS) were administered by the same route. After another 15 minutes the animals were killed and the heart, bronchi and lachrymal glands were removed. These organs were dissolved in Soluene R and the radioactivity was determined. The measurements were assumed to be total bonding. […] ID50 values were determined for the individual organs using these tests.

[2] = biological target: T2, muscarinic receptors of the atrium (Cavia porcellus, UniProt H0VRN8); assay: Dissociation constants (KB) on spontaneously beating right atrium, methacholine antagonism; design: species or system guinea pig; conditions: guinea pig spontaneously beating atrium, methacholine, 30 min contact; read-out: KB Heart (dissociation constant)
T2 construct: In the isolated, spontaneously beating right atrium; from tissue; host or cells: isolated right atrium of guinea pig
T2 sequence (H0VRN8 1-466): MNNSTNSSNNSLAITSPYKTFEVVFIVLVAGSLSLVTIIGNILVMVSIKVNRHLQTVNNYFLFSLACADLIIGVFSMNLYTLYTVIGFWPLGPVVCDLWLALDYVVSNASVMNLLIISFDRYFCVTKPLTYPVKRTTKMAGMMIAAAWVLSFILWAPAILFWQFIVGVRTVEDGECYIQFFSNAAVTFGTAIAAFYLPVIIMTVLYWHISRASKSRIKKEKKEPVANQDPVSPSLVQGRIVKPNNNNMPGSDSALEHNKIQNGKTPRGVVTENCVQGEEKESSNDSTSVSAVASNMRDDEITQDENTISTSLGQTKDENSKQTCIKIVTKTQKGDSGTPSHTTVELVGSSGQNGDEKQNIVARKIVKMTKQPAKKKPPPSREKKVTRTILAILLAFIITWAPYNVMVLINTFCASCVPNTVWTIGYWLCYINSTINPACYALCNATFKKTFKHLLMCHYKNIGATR
Protocol: (§1) Dissociation constants (KB values) were determined in vitro on the guinea pig ileum and spontaneously beating atrium. The ileum was removed and incubated in Krebs-Henseleit solution in an organ bath. Contractions were produced by means of increasing concentrations of methacholine (M) so that a full concentration-activity curve could be plotted. Then M was washed out, the test substance was added and kept in contact for 30 minutes and again a concentration-activity curve was plotted with M. The dissociation constant was calculated according to Arunlakshana and Schild (Brit. J. Pharmacol. 14, 48, 1959) from the dosage ratio (DR), i.e. the extent of displacement of the concentration-activity curve.
(§2) In the isolated, spontaneously beating right atrium M reduced the heart rate as a function of the concentration. This effect was stopped by the addition of an antimuscarinic. Dissociation constants for the muscarinic receptors of the atrium were obtained in the same way as described above. A comparison of the dissociation constants measured in the two different tissues made it possible to identify cardioselective substances.

[3] = test system: muscarinic receptors of the atrium; assay: as above; design: species or system guinea pig; conditions: Table IV
Protocol: as §1, §2

[4] = biological target: T3, muscarinic receptors, submandibular gland (Rattus norvegicus, UniProt P08483); assay: Receptor bonding test in vitro, submandibular gland (displacement of 3H-N-methylscopolamine); format: binding, Sprague-Dawley rats; conditions: 0.3 nmolar 3H-NMS, 30° C., 45 min
T3 construct: After removal of the heart and submandibular gland; from tissue; host or cells: submandibular gland of male Sprague-Dawley rats, homogenate
T3 sequence (P08483 whole entry): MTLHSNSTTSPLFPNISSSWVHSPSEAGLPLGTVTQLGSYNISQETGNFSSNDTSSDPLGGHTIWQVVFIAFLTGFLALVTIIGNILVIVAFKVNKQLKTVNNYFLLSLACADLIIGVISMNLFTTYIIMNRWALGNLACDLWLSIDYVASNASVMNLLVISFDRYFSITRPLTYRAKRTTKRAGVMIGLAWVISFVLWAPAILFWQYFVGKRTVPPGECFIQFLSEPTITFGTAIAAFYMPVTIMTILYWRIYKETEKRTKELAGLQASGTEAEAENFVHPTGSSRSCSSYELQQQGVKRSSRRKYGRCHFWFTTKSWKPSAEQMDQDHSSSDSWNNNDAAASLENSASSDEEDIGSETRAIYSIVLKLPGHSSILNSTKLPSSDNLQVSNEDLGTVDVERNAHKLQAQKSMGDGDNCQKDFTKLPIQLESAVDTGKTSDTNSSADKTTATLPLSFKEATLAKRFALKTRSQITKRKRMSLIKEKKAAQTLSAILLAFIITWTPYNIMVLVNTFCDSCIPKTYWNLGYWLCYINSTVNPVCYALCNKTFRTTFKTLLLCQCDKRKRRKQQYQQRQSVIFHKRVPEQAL

T1 sequence (P08483 whole entry): as above

SMILES: CCCN(CCC)CC1CCCCN1CCNC(=O)N1c2ccccc2C(=O)Nc2cccnc21 (centres unmarked) [Substance A, 5,11-dihydro-11-[[[2-[2-[(dipropylamino)methyl]-piperidin-1-yl]ethyl]amino]carbonyl]-6H-pyrido[2,3-b][1,4]benzodiazepin-6-one]
- ED50 (salivation): 0.458 mg/kg
- ED50 [1]: > 10 mg/kg
- Kb [2]: 2.45 nM
- efficacy compared with X and Y (in words) [3]: significantly more effective than X and Y

SMILES: CCN(CC)CC1CCCCN1CCNC(=O)N1c2cc(Cl)ccc2C(=O)Nc2cccnc21 (centres unmarked) [Substance C, 9-chloro-11-[[[2-[2-[(diethylamino)methyl]-piperidin-1-yl]ethyl]amino]carbonyl]-5,11-dihydro-6H-pyrido[2,3-b][1,4]benzodiazepin-6-one]
- ED50 (salivation): 1.4 mg/kg
- Kb [2]: 4.9 nM
- efficacy compared with X and Y (in words) [3]: significantly more effective than X and Y
- IC50 [4]: 150 nM

SMILES: CCN(CC)CC1CCCCN1CCNC(=O)N1c2ccccc2NC(=O)c2csc(C)c21 (centres unmarked) [Substance B, 4-[[[2-[2-[(diethylamino)methyl]-piperidin-1-yl]ethyl]amino]carbonyl]-4,9-dihydro-3-methyl-10H-thieno[3,4-b][1,5]benzodiazepin-10-one]
- ED50 (salivation): 0.078 mg/kg
- Ratio of salivation inhibition to M2 activity (salivation; rat, i.v. ED50 values): 9.75
- ED50 [1]: > 1 mg/kg
- Kb [2]: 0.24 nM
- efficacy compared with X and Y (in words) [3]: significantly more effective than X and Y
- IC50 [4]: 15 nM
